Measured values taken from US9504251B2, “Pesticidal compositions and related methods” (Dow AgroSciences LLC, priority 2014, dated 2016).
Read-outs that look alike come from different tables or passages of the source.

What was measured:
[1] = test system: Green Peach Aphid (Myzus persicae) (GPA) (MYZUPE); assay: Green peach aphid (GPA) foliar spray bioassay on cabbage seedlings; type: in vivo; conditions: 72 h, 200 ppm foliar spray on cabbage seedlings, graded after three days, read-out: GPA % Control (or Mortality) rating
Procedure: Bioassay for GPA was prepared as follows: Cabbage seedlings grown in 3-inch pots, with 2-3 small (3-5 cm) true leaves, were used as test substrate. The seedlings were infested with 20-50 GPA (adult and nymph stages) one day prior to chemical application. Four pots with individual seedlings were used for each treatment. The tested compounds (2 mg) were dissolved in 2 mL of acetone/methanol (1:1) solvent to form stock solutions of 1000 ppm tested compound. The stock solutions were diluted five times with an aqueous solution containing 0.025% TWEEN® 20 surfactant, which is polyoxyethylene (20) sorbitan monolaurate, to obtain the solution at 200 ppm tested compound. A hand-held aspirator-type sprayer was used for spraying the solution to both sides of cabbage leaves until runoff. The control plants (solvent check) were sprayed with the diluent only containing 20% by volume of acetone/methanol (1:1) solvent. Treated plants were held in a holding room for three days at approximately 25° C. and ambient relative humidity (RH) prior to grading. Evaluation was conducted by counting the number of live aphids per plant under a microscope. Percent control was measured by using Abbott's correction formula (W. S. Abbott, “A Method of Computing the Effectiveness of an Insecticide,” J. Econ. Entomol. 18 (1925), pp. 265-267) as follows. Corrected % Control=100*(X−Y)/X
X=No. of live aphids on solvent check plants and
Y=No. of live aphids on treated plants
(§1) The comparative compounds were tested for insecticidal activities against GPA and WF pests using the same test protocols described above for the disclosed compounds.

[2] = test system: Sweetpotato Whitefly-crawler (Bemisia tabaci) (WF) (BEMITA); assay: Sweetpotato whitefly-crawler (WF) foliar spray assay on cotton plants; type: in vivo; conditions: 216 h, 200 ppm foliar spray on cotton plants, graded after 9 days, read-out: WF % Control (or Mortality) rating
Procedure: Foliar spray assay for WF was prepared as follows: Cotton plants (Gossypium hirsutum) grown in 3-inch pots, with 1 small (4-5 cm) true leaf, were used as test substrate. The plants were infested with 200-400 whitefly eggs 4-5 days prior to chemical application. Four pots with individual plants were used for each treatment. Tested compounds (2 mg) were dissolved in 1 mL of acetone solvent, forming stock solutions of 2000 ppm tested compound.
The stock solutions were diluted ten times with 0.025% TWEEN® 20 surfactant in H2O (diluents) to obtain the solution at 200 ppm tested compound. A hand-held aspirator-type sprayer was used for spraying the solution to both sides of cotton leaves until runoff. The control plants (solvent check) were sprayed with the diluent only containing 10% by volume of acetone solvent. Treated plants were held in a holding room for 9 days at approximately 25° C. and ambient relative humidity (RH) prior to grading. Evaluation was conducted by counting the number of live 3-4 nymph stage per plant under a microscope. Percent control was measured by using Abbott's correction formula (W. S. Abbott, “A Method of Computing the Effectiveness of an Insecticide,” J. Econ. Entomol. 18 (1925), pp. 265-267) as follows. Corrected % Control=100*(X−Y)/X
X=No. of live nymphs on solvent check plants and
Y=No. of live nymphs on treated plants.
as §1

[3] = Abbott-corrected % control, disclosed compounds (TABLE 2)
[4] = same protocol, comparative compounds (TABLE 3)

Row | SMILES | mortality at 200 ppm [1, 3] [%] | mortality at 200 ppm [2, 3] [%] | mortality at 200 ppm [1, 4] [%] | mortality at 200 ppm [2, 4] [%]
1 | CON=C(C)CN1CCc2nn(-c3cccnc3)cc2C1=O (single isomer, unassigned) [Compound P30, 5-(2-(methoxyimino)propyl)-2-(pyridin-3-yl)-2,5,6,7-tetrahydro-4H-pyrazolo[4,3-c]pyridin-4-one] | 80 to 100 | 80 to 100 | – | –
2 | O=C1c2cn(-c3cccnc3)nc2CCN1CC(=NOCc1ccccc1)c1ccc(C(F)(F)F)cc1 (single isomer, unassigned) [Compound P39, 5-(2-((benzyloxy)imino)-2-(4-(trifluoromethyl)phenyl)ethyl)-2-(pyridin-3-yl)-2,5,6,7-tetrahydro-4H-pyrazolo[4,3-c]pyridin-4-one] | 0 to 80 | 0 to 80 | – | –
3 | O=C1NCCc2nn(-c3ccccn3)cc21 [Compound CE1, 2-(pyridin-2-yl)-6,7-dihydro-2H-pyrazolo[4,3-c]pyridin-4(5H)-one, reference compound] | – | – | < 0 | 0 to 80
4 | O=C1c2cn(-c3cccnc3)nc2CCN1c1ccc(C(F)(F)F)nc1 [Compound F33, 2-(3-Pyridyl)-5-[6-(trifluoromethyl)-3-pyridyl]-6,7-dihydropyrazolo[4,3-c]pyridin-4-one] | 80 to 100 | 0 to 80 | – | –
5 | C=CCN1CCc2nn(-c3cccnc3)cc2C1=O [Compound F31, 5-allyl-2-(pyridin-3-yl)-6,7-dihydro-2H-pyrazolo[4,3-c]pyridin-4(5H)-one] | 80 to 100 | 0 to 80 | – | –
6 | O=C1c2cn(-c3cccnc3)nc2CCN1c1ccccn1 [Compound F43, 5-(pyridin-2-yl)-2-(pyridin-3-yl)-6,7-dihydro-2H-pyrazolo[4,3-c]pyridin-4(5H)-one] | 80 to 100 | 0 to 80 | – | –
7 | O=C1c2cn(-c3cccnc3)nc2CCN1c1ccc(C(F)(F)F)cc1 [Compound F13, 2-(3-Pyridyl)-5-[4-(trifluoromethyl)phenyl]-6,7-dihydropyrazolo[4,3-c]pyridin-4-one] | 80 to 100 | 0 to 80 | – | –
8 | O=C1c2cn(-c3cccnc3)nc2CCN1c1cc(C(F)(F)F)ncn1 [Compound F48, 2-(3-Pyridyl)-5-[6-(trifluoromethyl)pyrimidin-4-yl]-6,7-dihydropyrazolo[4,3-c]pyridin-4-one] | 80 to 100 | 0 to 80 | – | –
9 | O=C1c2cn(-c3ccccn3)nc2CCN1c1cccc(OC(F)(F)F)c1 [Compound CE4, 2-(2-Pyridyl)-5-[3-(trifluoromethoxy)phenyl]-6,7-dihydropyrazolo[4,3-c]pyridin-4-one, reference compound] | – | – | < 0 | < 0
10 | CSCN1CCc2nn(-c3ccncc3)cc2C1=O [Compound CE2, 5-(methylsulfanylmethyl)-2-(4-pyridyl)-6,7-dihydropyrazolo[4,3-c]pyridin-4-one, reference compound] | – | – | 0 to 80 | 0 to 80
11 | O=C1c2cn(-c3cccnc3)nc2CCN1c1cccc(C(F)(F)F)c1 [Compound F4, 2-(3-Pyridyl)-5-[3-(trifluoromethyl)phenyl]-6,7-dihydropyrazolo[4,3-c]pyridin-4-one] | 80 to 100 | 0 to 80 | – | –
12 | O=C1c2cn(-c3cccnc3)nc2CCN1c1ncccc1C(F)(F)F [Compound F10, 2-(3-Pyridyl)-5-[3-(trifluoromethyl)-2-pyridyl]-6,7-dihydropyrazolo[4,3-c]pyridin-4-one] | 0 to 80 | 0 to 80 | – | –
13 | O=C1c2cn(-c3cccnc3)nc2CCN1CC(=NOCc1ccccc1)c1ccccc1 (racemic) [Compound P36, 5-(2-((benzyloxy)imino)-2-phenylethyl)-2-(pyridin-3-yl)-2,5,6,7-tetrahydro-4H-pyrazolo[4,3-c]pyridin-4-one] | 0 to 80 | 80 to 100 | – | –
14 | O=C1c2cn(-c3cccnc3)nc2CCN1CCSCCC(F)(F)F [Compound F19, 2-(pyridin-3-yl)-5-(2-((3,3,3-trifluoropropyl)thio)ethyl)-6,7-dihydro-2H-pyrazolo[4,3-c]pyridin-4(5H)-one] | 80 to 100 | 80 to 100 | – | –
15 | CC(CN1CCc2nn(-c3cccnc3)cc2C1=O)=NOCc1ccccc1 (single isomer, unassigned) [Compound P31, 5-(2-((benzyloxy)imino)propyl)-2-(pyridin-3-yl)-2,5,6,7-tetrahydro-4H-pyrazolo[4,3-c]pyridin-4-one] | 80 to 100 | 80 to 100 | – | –
16 | O=C1c2cn(-c3cccnc3)nc2CCN1CC(=NOCc1ccccc1)c1cccc(C(F)(F)F)c1 (single isomer, unassigned) [Compound P38, 5-(2-((benzyloxy)imino)-2-(3-(trifluoromethyl)phenyl)ethyl)-2-(pyridin-3-yl)-2,5,6,7-tetrahydro-4H-pyrazolo[4,3-c]pyridin-4-one] | 0 to 80 | 0 to 80 | – | –
17 | CSCN1CCc2nn(-c3cccnc3)cc2C1=O [Compound F20, 5-(Methylsulfanylmethyl)-2-(3-pyridyl)-6,7-dihydropyrazolo[4,3-c]pyridin-4-one] | 80 to 100 | 80 to 100 | – | –
18 | O=C1c2cn(-c3cccnc3)nc2CCN1c1ccc(OC(F)(F)F)cc1 [Compound F14, 2-(3-Pyridyl)-5-[4-(trifluoromethoxy)phenyl]-6,7-dihydropyrazolo[4,3-c]pyridin-4-one] | 80 to 100 | 0 to 80 | – | –
19 | O=C1c2cn(-c3cccnc3)nc2CCN1Cc1ccc(C(F)(F)F)cc1 [Compound F50, 2-(3-Pyridyl)-5-[[4-(trifluoromethyl)phenyl]methyl]-6,7-dihydropyrazolo[4,3-c]pyridine-4-one] | 80 to 100 | 0 to 80 | – | –
20 | O=C1NCCc2nn(-c3cccnc3)cc21 [Compound F2, 2-(pyridin-3-yl)-6,7-dihydro-2H-pyrazolo[4,3-c]pyridin-4(5H)-one] | 80 to 100 | 0 to 80 | – | –
21 | O=C1c2cn(-c3ccccn3)nc2CCN1c1cccc(C(F)(F)F)n1 [Compound CE5, reference compound] | – | – | < 0 | < 0
22 | O=C1c2cn(-c3cccnc3)nc2CCN1c1ccc(F)cn1 [Compound F49, 5-(5-Fluoro-2-pyridyl)-2-(3-pyridyl)-6,7-dihydropyrazolo[4,3-c]pyridin-4-one] | 80 to 100 | 0 to 80 | – | –
23 | CSCCC(=O)N1CCc2nn(-c3cccnc3)cc2C1=O [Compound F12, 5-(3-(methylthio)propanoyl)-2-(pyridin-3-yl)-6,7-dihydro-2H-pyrazolo[4,3-c]pyridin-4(5H)-one] | 80 to 100 | 0 to 80 | – | –
24 | COc1ccccc1CN1CCc2nn(-c3cccnc3)cc2C1=O [Compound F15, 5-[(2-Methoxyphenyl)methyl]-2-(3-pyridyl)-6,7-dihydropyrazolo[4,3-c]pyridin-4-one] | 0 to 80 | 80 to 100 | – | –
25 | O=C1c2cn(-c3ccccn3)nc2CCN1c1cc(C(F)(F)F)ccn1 [Compound CE7, 2-(2-Pyridyl)-5-[4-(trifluoromethyl)-2-pyridyl]-6,7-dihydropyrazolo[4,3-c]pyridin-4-one, reference compound] | – | – | 0 to 80 | < 0
26 | O=C1c2cn(-c3cccnc3)nc2CCN1c1cc(C(F)(F)F)ccn1 [Compound F7, 2-(3-Pyridyl)-5-[4-(trifluoromethyl)-2-pyridyl]-6,7-dihydropyrazolo[4,3-c]pyridin-4-one] | 80 to 100 | 80 to 100 | – | –
27 | O=C1c2cn(-c3cccnc3)nc2CCN1c1ccnc(C(F)(F)F)c1 [Compound F5, 2-(3-Pyridyl)-5-[2-(trifluoromethyl)-4-pyridyl]-6,7-dihydropyrazolo[4,3-c]pyridin-4-one] | 80 to 100 | 0 to 80 | – | –
